Assay results taken from US11332463B2, “Spiropiperidine allosteric modulators of nicotinic acetylcholine receptors” (Merck Sharp & Dohme Corp., priority 2018, dated 2022).
Where two headings read alike, the source gives them in different places.

Target: T1, human α7 nicotinic acetylcholine receptor (HEK cell line stably expressing human RIC-3 and human α7) (Homo sapiens, UniProt P36544)
T1 construct: host or cells: HEK cell line (PrecisION hnAChR α7/RIC-3)
Test: Automated patch-clamp electrophysiology functional assay (Assay A), IonFlux HT, whole-cell population patch
Format: cell-based
Protocol: The α7 nAChR positive allosteric modulator (PAM) activity of the present compounds may be tested using assays known in the art. […] The assay was performed using the IonFlux HT in a whole-cell, population patch configuration. See Golden et al. Assay Drug Dev. Technol. […] The compounds were assessed for their ability to modulate the function of the human 7 nAChR stably expressed in a HEK cell line both in the presence, and in the absence of the natural 7 agonist acetylcholine. By performing a series of such measurements at different concentrations, the effective concentration of the 7 nAChR PAMs (EC50) was determined. See Spencer et al. Assay Drug Dev. Technol.
Direct activation of α7 (agonism), and potentiation of acetylcholine-evoked 7 currents was determined as follows:
Automated patch-clamp electrophysiology was performed using the IonFlux HT (Fluxion Biosciences Inc., San Francisco, Calif.) in the whole-cell, population patch configuration. Test compounds were assessed for their ability to modulate the function of the α7 nicotinic acetylcholine receptor both in the presence, and in the absence of the natural α7 agonist acetylcholine. […] Immediately prior to assay, cells were detached by first aspirating growth media, rinsing with Dulbecco's phosphate buffered saline, and then adding 10 mL of Accutase (Innovative Cell Technologies, San Diego, Calif.) to the flask and then incubating at 37° C. for 5 minutes. Detached cells were then recovered by the addition of 40 mL of CHO-serum-free media supplemented with 25 mM HEPES, and rocked gently in a 50 mL conical tube for 20 minutes prior to patch-clamp assay. After recovery, cells were pelleted by centrifugation at 1,000 RPM for 1 minute in a compact bench top centrifuge; recovery media was aspirated and cells were resuspended in external recording solution (150 mM NaCl, 5 mM KCl, 2 mM CaCl2), 1 mM MgCl2, 10 mM HEPES, 12 mM dextrose) to a density of 5.0×10^6 cells/mL. The cell suspension was added to the cell inlet wells on an IonFlux HT population patch plate which had previously been rinsed and primed with deionized H2O. Test compounds were serially diluted in DMSO and then resuspended to the final test concentration in external recording solution, with, or without 40 μM acetylcholine added to the external recording solution; test compounds were then transferred to the IonFlux HT population patch plate. Internal recording solution (110 mM TrisPO4, 28 mM TrisBase, 0.1 mM CaCl2, 2 mM MgCl2, 11 mM EGTA, 4 mM MgATP) was added to the internal recording solution inlet wells on the IonFlux HT patch plate previously loaded with cells and test compounds, and the plate loaded into the IonFlux HT instrument. A protocol was executed on the IonFlux HT to trap the cells, break into the cells, and establish the whole-cell recording configuration; cells were voltage-clamped at a holding potential of −60 mV for the duration of the experiment, all experiments were conducted at room temperature, and the IonFlux HT injection pressure was 8 psi for solution applications. Upon establishing the whole-cell configuration, external recording solution was perfused into the recording chambers for 120 seconds and then 40 μM acetylcholine was applied for 1 second and immediately washed off with external recording solution for 60 seconds. The 40 μM acetylcholine-evoked α7 current served as the current response to which subsequent test compound effects, in the presence, or in the absence of 40 μM acetylcholine would be quantified relative to. Next, test compounds were evaluated at multiple concentrations for their ability to induce, or modulate 7 current responses; three concentrations of test compound were evaluated in ascending dose fashion per recording.

[1] = HEK cells expressing human α7/RIC-3, test compound with or without 40 μM acetylcholine, holding potential −60 mV, room temperature, read-out: α7 nAChR Potency
[2] = automated patch-clamp electrophysiology functional assay (Assay A), read-out: α7 nAChR EC50

T1 sequence (P36544 23-502): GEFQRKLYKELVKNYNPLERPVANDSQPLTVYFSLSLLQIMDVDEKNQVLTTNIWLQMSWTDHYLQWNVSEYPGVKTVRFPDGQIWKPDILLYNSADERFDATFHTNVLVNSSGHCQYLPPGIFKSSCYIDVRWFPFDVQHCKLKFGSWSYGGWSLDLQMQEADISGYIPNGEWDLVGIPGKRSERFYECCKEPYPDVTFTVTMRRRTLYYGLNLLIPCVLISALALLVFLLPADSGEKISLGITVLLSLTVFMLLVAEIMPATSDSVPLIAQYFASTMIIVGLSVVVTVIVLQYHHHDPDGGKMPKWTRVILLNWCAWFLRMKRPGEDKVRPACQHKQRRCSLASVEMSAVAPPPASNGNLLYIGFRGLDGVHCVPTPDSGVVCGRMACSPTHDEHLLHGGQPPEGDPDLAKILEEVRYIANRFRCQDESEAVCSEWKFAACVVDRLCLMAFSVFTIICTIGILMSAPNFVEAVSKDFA

| SMILES | EC50 [1] | EC50 [2] |
| --- | --- | --- |
| COc1ccc(Cl)cc1-c1noc(C2CC23CCN(S(=O)(=O)CC2CCCCO2)CC3)n1 (mixture of isomers) [Example B3] | 500 to 5000 nM | 1300 nM |
| CC(C)C1CC(c2nc([C@@H]3CC34CCN(S(N)(=O)=O)CC4)no2)C1 (mixture of isomers) [Example E3] | 500 to 5000 nM | 1900 nM |
| CC1CCCC(c2nc([C@@H]3CC34CCN(S(N)(=O)=O)CC4)no2)C1 (mixture of isomers) [Example E7] | 500 to 5000 nM | 3400 nM |
| CC(c1nc([C@@H]2CC23CCN(S(N)(=O)=O)CC3)no1)c1ccccc1Cl (mixture of isomers) [Example E8] | 500 to 5000 nM | 3900 nM |
| NS(=O)(=O)N1CCC2(CC1)C[C@H]2c1noc(C2CCCCC23CC3)n1 (mixture of isomers) [Example E11] | 500 to 5000 nM | 4300 nM |
| NS(=O)(=O)N1CCC2(CC1)C[C@H]2c1noc(C2CCc3c(F)cccc32)n1 (mixture of isomers) [Example E13] | 500 to 5000 nM | 1300 nM |
| NS(=O)(=O)N1CCC2(CC1)C[C@H]2c1noc(C2CC(c3ccccc3)C2)n1 (mixture of isomers) [Example E15] | 500 to 5000 nM | 1500 nM |
| NS(=O)(=O)N1CCC2(C(F)C1)C(c1nc(-c3conc3C3CC3)no1)C2(F)F (mixture of isomers) [Example I11] | 500 to 5000 nM | 820 nM |
| Cc1ccc(C)c(-c2nc(C3C(F)(F)C34CCN(S(N)(=O)=O)C(C)C4)no2)c1 (mixture of isomers) [Example K2] | 100 to 500 nM | 430 nM |
| COc1ccc(Cl)cc1-c1noc(C2CC23CCN(S(=O)(=O)Cc2ccccn2)CC3)n1 (racemic) [Example B1] | 500 to 5000 nM | 2300 nM |
| COc1ccc(Cl)cc1-c1noc(C2CC23CCN(S(=O)(=O)c2ccsc2)CC3)n1 (racemic) [Example B2] | 500 to 5000 nM | – |
| COc1ccc(Cl)cc1-c1noc(C2CC23CCN(S(=O)(=O)c2ccn(C)n2)CC3)n1 (racemic) [Example B4] | 500 to 5000 nM | 3200 nM |
| COc1ccc(Cl)cc1-c1noc(C2CC23CCN(S(=O)(=O)CCc2ccccc2)CC3)n1 (racemic) [Example B5] | 500 to 5000 nM | 3000 nM |
| COc1ccc(Cl)cc1-c1noc(C2CC23CCN(S(=O)(=O)c2cccc4nonc24)CC3)n1 (racemic) [Example B6] | 500 to 5000 nM | – |
| COc1ccc(Cl)cc1-c1noc(C2CC23CCN(S(=O)(=O)c2ccc4ncsc4c2)CC3)n1 (racemic) [Example B7] | 500 to 5000 nM | 3300 nM |
| COc1ccc(Cl)cc1-c1noc(C2CC23CCN(S(=O)(=O)c2c(O)no[n+]2C)CC3)n1 (racemic) [Example B8] | 500 to 5000 nM | – |
| COc1ccc(Cl)cc1-c1noc(C2CC23CCN(C(=O)NC(C)(C)C)CC3)n1 (racemic) [Example B9] | 5000 to 50000 nM | 5400 nM |
| COc1ccc(Cl)cc1-c1noc(C2CC23CCN(C(=O)NC2CCCCC2)CC3)n1 (racemic) [Example B10] | 500 to 5000 nM | – |
| COc1ccc(Cl)cc1-c1noc(C2CC23CCN(S(=O)(=O)NCc2ccccn2)CC3)n1 (racemic) [Example B11] | 500 to 5000 nM | 3500 nM |
| COc1ccc(Cl)cc1-c1noc(C2CC23CCN(C(=O)NCc2ccns2)CC3)n1 (racemic) [Example B12] | 500 to 5000 nM | 3400 nM |
| COc1ccc(Cl)cc1-c1noc(C2CC23CCN(C(=O)NCc2ccccc2)CC3)n1 (racemic) [Example B13] | 5000 to 50000 nM | 5100 nM |

| SMILES | EC50 [1] | EC50 [2] |
| --- | --- | --- |
| COc1ccc(Cl)cc1-c1noc(C2CC23CCN(S(C)(=O)=O)CC3)n1 (racemic) [Example B14] | 500 to 5000 nM | 1100 nM |
| CNc1ncccc1-c1noc(C2CC23CCN(S(N)(=O)=O)CC3)n1 (racemic) [Example C1] | 500 to 5000 nM | 3600 nM |
| NS(=O)(=O)N1CCC2(CC1)CC2c1nc(-c2ccnc(N3CCCC3)c2)no1 (racemic) [Example C2] | 500 to 5000 nM | – |
| Cc1noc(C)c1-c1noc(C2C(F)(F)C23CCN(S(N)(=O)=O)CC3)n1 (racemic) [Example C3] | 100 to 500 nM | 400 nM |
| COc1ccc(Cl)cc1-c1noc(C2CC23CCN(S(N)(=O)=O)CC3)n1 (racemic) [Example C13] | 500 to 5000 nM | – |
| NS(=O)(=O)N1CCC2(CC1)C(c1nc(-c3ccc(F)cc3C(F)(F)F)no1)C2(Cl)Cl (racemic) [Example C17] | 500 to 5000 nM | 2700 nM |
| Cc1ccc(C)c(-c2noc(C3(C)C(F)(F)C34CCN(S(N)(=O)=O)CC4)n2)c1 (racemic) [Example C18] | 500 to 5000 nM | 1600 nM |
| COc1ccc(Cl)cc1-c1nc(C2CC23CCN(S(C)(=O)=O)CC3)no1 (racemic) [Example J1] | 500 to 5000 nM | 760 nM |
| NS(=O)(=O)N1CCC2(CC1)C(c1nsc(N3CCCCC3)n1)C2(F)F (racemic) [Example J2] | 500 to 5000 nM | 1000 nM |
| COc1ccc(Cl)cc1-c1nc(C2CC23CCN(S(C)(=O)=O)CC3)no1 (single isomer, unassigned) [Example 26, 1-[5-(5-Chloro-2-methoxyphenyl)-1,2,4-oxadiazol-3-yl]-6-(methylsulfonyl)-6-azaspiro[2.5]octane] | 100 to 500 nM | 480 nM |
| NS(=O)(=O)N1CCC2(CC2c2nc(-c3cccc(OC(F)F)c3)no2)C(F)C1 (single isomer, unassigned) [Example I1] | 500 to 5000 nM | 750 nM |
| NS(=O)(=O)N1CCC2(CC2c2nc(-c3cccc(OC(F)F)c3)no2)C(F)C1 (single isomer, unassigned) [Example I2] | 500 to 5000 nM | 1000 nM |
| NS(=O)(=O)N1CCC2(CC2c2nc(-c3ccccc3)no2)C(F)(F)C1 (single isomer, unassigned) [Example I3] | 500 to 5000 nM | 2300 nM |
| Cc1ccc(C)c(-c2noc(C3CC34CCN(S(N)(=O)=O)CC4(F)F)n2)c1 (single isomer, unassigned) [Example I4] | 500 to 5000 nM | 1500 nM |
| CC1CN(S(N)(=O)=O)CCC12CC2c1nc(-c2ccnc(OCC(F)(F)F)c2)no1 (single isomer, unassigned) [Example I5] | 500 to 5000 nM | 1200 nM |
| NS(=O)(=O)N1CCC2(CC2c2nc(-c3conc3C3CC3)no2)C(F)C1 (single isomer, unassigned) [Example I6] | 500 to 5000 nM | 840 nM |
| NS(=O)(=O)N1CCC2(CC2c2nc(-c3conc3C3CC3)no2)C(F)C1 (single isomer, unassigned) [Example I7] | 500 to 5000 nM | 1500 nM |
| NS(=O)(=O)N1CCC2(CC2c2nc(-c3conc3C3CC3)no2)C(F)C1 (single isomer, unassigned) [Example I8] | 5000 to 50000 nM | – |
| NS(=O)(=O)N1CCC2(CC2c2nc(-c3conc3C3CC3)no2)C(F)C1 (single isomer, unassigned) [Example I9] | 500 to 5000 nM | 3300 nM |
| NS(=O)(=O)N1CCC2(CC2c2nc(-c3conc3C3CC3)no2)C(F)C1 (single isomer, unassigned) [Example I10] | 500 to 5000 nM | 3400 nM |
| NS(=O)(=O)N1CCC2(C(F)C1)C(c1nc(-c3conc3C3CC3)no1)C2(F)F (single isomer, unassigned) [Example I13] | 500 to 5000 nM | 600 nM |
